Patent US6444645B1, “Crosslink-stabilized indolicidin analogs” (The Regents of the University of California, priority 1998, dated 2002)
Like-named read-outs stand apart in the source and are kept apart here.

Experiments:
Escherichia coli ML35 = conditions: 10, 30, 100 or 300 μg/ml in 10 mM PIPES pH 7.4; FIG. 2
Description: (§1) Nutrient-containing agar (or agarose) plates were seeded with E. coli ML35, C. neoformans 271A, S. aureus 207A or C. albicans 16820. […] Following an initial incubation interval of 1 to 4 hr, the well-containing layer was overlayed with enriched (2×normal) solid medium in order to support microbial growth outside the perimeter of inhibition. After overnight incubation at 30° C. to 37° C., the antimicrobial activity was quantitated by measuring the clear zones around each well (zone of inhibition).

Candida albicans 16820 = conditions: 10, 30, 100 or 300 μg/ml in 10 mM PIPES pH 7.4; FIG. 5
Description: as §1

[1] = test system: Cryptococcus neoformans 271A; conditions: 10, 30, 100 or 300 μg/ml in 10 mM PIPES pH 7.4; FIG. 3
Description: as §1

[2] = test system: Staphylococcus aureus 207A; conditions: 10, 30, 100 or 300 μg/ml in 10 mM PIPES pH 7.4; FIG. 4
Description: as §1

α-chymotrypsin = α-chymotrypsin 1% by weight, 0.1 M Tris buffer pH 7.7, 37° C., RP-HPLC
C. albicans = conditions: 60 min, 10 mM PIPES pH 7.4
Description: (§2) Microbicidal activity was measured by first incubating the target organism with the peptide in 10 mM PIPES buffer (pH 7.4), then plating the suspension to quantitate surviving microorganisms.
(§3) Cultures were grown to mid log phase in an appropriate medium, harvested, washed, and resuspended to 1-2×10^7 colony forming units (CFU) per ml. To conserve peptide, the incubation volume usually was 0.05 ml, with the final cell concentration being 1-2×10^6 CFU/ml. Peptide stock solutions, usually made up in […], were diluted in the incubation buffer to a final concentration of 1 μg/ml to 30 μg/ml, and the incubation was initiated by addition of an appropriate volume of the bacterial or fungal stock suspension to the prewarmed (37° C.) peptide-buffer mixture. E. coli and S. aureus were incubated with peptide for 30 min; C. albicans was incubated for 60 min; and C. neoformans was incubated for 4 hr. Following incubation, 50 μl or 100 μl samples were removed and diluted serially, then plated on nutrient-containing agar plates.

E. coli ML35 = conditions: 30 min
Description: as §2, §3

C. neoformans 271A = conditions: 4 hr
Description: as §2, §3

S. aureus 207A = conditions: 30 min
Description: as §2, §3

[3] = 10 μg/ml peptide, 10 mM PIPES pH 7.4

## Ile-Leu-Pro-Trp-Lys-Trp-Pro-Trp-Trp-Pro-Trp-Arg-Arg-CONH2 [Indol 1-13]
Escherichia coli ML35
  growth inhibition (zone of inhibition): inhibited the growth of each microorganism tested in a dose dependent manner
Candida albicans 16820
  growth inhibition (zone of inhibition): inhibited the growth of each microorganism tested in a dose dependent manner
[1]
  growth inhibition (zone of inhibition): inhibited the growth of each microorganism tested in a dose dependent manner
[2]
  growth inhibition (zone of inhibition): inhibited the growth of each microorganism tested in a dose dependent manner
α-chymotrypsin
  time within which all of the peptide was digested: ≤ 6 h
C. albicans; 10 μg/ml peptide
  reduction of survival (CFU): about two orders of magnitude
C. albicans; 30 μg/ml peptide
  reduction of survival (CFU): greater than three orders of magnitude
E. coli ML35; [3]
  reduction of survival (CFU): greater than three orders of magnitude
E. coli ML35; 30 μg/ml peptide
  additional killing versus 10 μg/ml: minimal additional killing
C. neoformans 271A; [3]
  reduction of survival (CFU): greater than three orders of magnitude
C. neoformans 271A; 30 μg/ml peptide
  additional killing versus 10 μg/ml: minimal additional killing
S. aureus 207A; [3]
  reduction of survival (CFU): greater than three orders of magnitude
S. aureus 207A; 30 μg/ml peptide
  additional killing versus 10 μg/ml: minimal additional killing
